In paper PMC8194506 (Antiviral research, 2020):

Settings: guinea pig, in vivo

Q: Which well tolerated dose does the source give for `CCN(CC)CCOc1ccc2c(c1)C(=O)c1cc(OCCN(CC)CC)ccc1-2` [Tilorone] here?
A: Its well tolerated dose is at most 60 mg/kg.
